From US20230348362A1, “LIPID COMPOUNDS AND LIPID NANOPARTICLE COMPOSITIONS” (Suzhou Abogen Biosciences Co., Ltd., priority 2021, published 2023)

Legend:
Type in all cases: physicochemical
[1] = Lipid nanoparticle size and polydispersity by dynamic light scattering; settings: LNP of lipid/DSPC/cholesterol/PEG-lipid 50:10:38.5:1.5 encapsulating hEPO mRNA
In short: (§1)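 LNPs made from ionizable lipid/DSPC/cholesterol/PEG-lipid (50:10:38.5:1.5) and mRNA in citrate pH 4 by microfluidic mixing, lipid:mRNA about 10:1–30:1 w/w, then dialysed into DPBS and filtered. Size and PDI measured by DLS in backscatter mode; encapsulation efficiency measured by RiboGreen assay.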

[2] = Encapsulation efficiency of lipid nanoparticles, Quant-it Ribogreen RNA assay; settings: LNP of lipid/DSPC/cholesterol/PEG-lipid 50:10:38.5:1.5 encapsulating hEPO mRNA
In short: as §1

[3] = Apparent pKa of LNP formulations, TNS fluorescence assay; settings: LNP cationic lipid/DSPC/cholesterol/DMG-PEG 50/10/38.5/1.5 mol %
In short: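 LNPs (cationic lipid/DSPC/cholesterol/DMG-PEG 50/10/38.5/1.5 mol %) diluted to 0.1 mg/mL total lipid in citrate/phosphate/borate/NaCl buffers spanning pH 3–9 with TNS. Fluorescence (ex 325, em 435 nm) read at room temperature; pKa taken as the pH at half-maximal intensity from sigmoidal fit.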

SMILES	polydispersity [1]	size (nm) [1]	Encapsulation Efficiency [2]	Apparent Pka [3]
CCCCCCC(=O)OCC(CCCCN(CCO)CCN(CCCCC(COC(=O)CCCCCC)COC(=O)CCCCCC)C1CCC1)COC(=O)CCCCCC [Compound 165]	0.125	131.30 nm	75.66%	6.183
CCCCCCCCC(CCCCCC)COC(=O)CCCCCN(CCCCN(CCO)CCCCC(COC(=O)CCCCCCC)COC(=O)CCCCCCC)C1CC1 (stereo not shown) [Compound 190]	0.13	78.4 nm	88.81%	6.699
CCCCC/C=C\CCCC(CCC/C=C\CCCCC)COC(=O)CCCCCN(CCO)CCN(CCCCCC(=O)OCC(CCC/C=C\CCCCC)CCC/C=C\CCCCC)C1CCCCC1 [Compound 18]	0.049	56.64 nm	96.4%	6.018
CCCCCCCC(=O)OCC(CCCCN(CC=C(C)C)CCCCN(CCO)CCCCC(COC(=O)CCCCCCC)COC(=O)CCCCCCC)COC(=O)CCCCCCC [Compound 203]	0.16	131.9 nm	78.17%	6.874
CCCCCCCCOC(CCCCCN(CCO)CCN(CCCCCC(=O)OCC(CCCCCC)CCCCCCCC)C1CCC1)OCCCCCCCC (stereo not shown) [Compound 201]	0.028	91.64 nm	94.15%	6.226
CCCCCCCCC(CCCCCCCC)COC(=O)CCCCCN(CCO)CCN(CCCCCC(=O)OCC(CCCCCCCC)CCCCCCCC)C1CCC(C)(C)CC1 [Compound 31]	0.092	54.55 nm	88.2%	5.708
CCCCCCCCC(CCCCCC)CNC(=O)CCCCCCN(CCO)CCN(CCCCC(COC(=O)CCCCCCC)COC(=O)CCCCCCC)C1CCCCC1 (stereo not shown) [Compound 231]	0.036	73.66 nm	92.25%	6.712
CCCCCCCCC(CCCCCCCC)COC(=O)CCCCCN(CCO)CCN(CC=C(C)C)CCOCCC(=O)OCC(CCCCCCCC)CCCCCCCC [Compound 123]	0.152	59.28 nm	94.58%	6.336
CCCCCCCCCCCCCCN(CCCCCCCCCCCCCC)C(=O)CCCCCN(CCO)CCN(CCCCCC(=O)OCCCCCCCCCCC)C1CCCCC1 [Compound 89]	0.086	81.46 nm	89.05%	6.745
CCCCCCCCC(CCCCCCCC)COC(=O)CCCCCN(CCO)CCN(CCCCCC(=O)OCC(CCCCCCCC)CCCCCCCC)Cc1ccncc1 [Compound 37]	0.037	71.53 nm	87.2%	6.988
CCCCCCCCCCCNC(=O)CCCCCN(CCN(CCO)CCCCC(COC(=O)CCCCCCC)COC(=O)CCCCCCC)C1CCC1 [Compound 188]	0.085	111.8 nm	86.80%	6.738
CCCCCCCCC(CCCCCCCC)COC(=O)CCCCCN(CCO)CCN(CCCCCCOC(=O)C(CCCCCCCC)CCCCCCCC)C1CCC1 [Compound 84]	0.097	59.91 nm	91.88%	6.117
CCCCCCCCC(CCCCCC)COC(=O)CCCCCN(CCCCN(CCO)CCCCC(COC(=O)CCCCCCC)COC(=O)CCCCCCC)C1CCCCC1 (stereo not shown) [Compound 192]	0.109	82.66 nm	90.40%	6.707
CCCCCCCCCCC(=O)OCC(CCCCN(CCO)CCN(CCCCC(COC(=O)CCCCCCCCCC)COC(=O)CCCCCCCCCC)C1CCC1)COC(=O)CCCCCCCCCC [Compound 168]	0.107	78.08 nm	91.48%	6.537
CCCCCCCCC(CCCCCC)CNC(=O)CCCCN(CCO)CCN(CCCCC(COC(=O)CCCCCCC)COC(=O)CCCCCCC)C1CCCC1 (stereo not shown) [Compound 227]	0.048	83.54 nm	91.70%	6.872
CCCCCCCCC(=O)OCC(CCCCN(CCO)CCN(CCCCC(COC(=O)CCCCCCCC)COC(=O)CCCCCCCC)C1CCC1)COC(=O)CCCCCCCC [Compound 166]	0.092	75.12 nm	92.85%	6.513
CCCCCCCC(=O)OCC(CCCCN(CCO)CCCCN(CCCCC(COC(=O)CCCCCCC)COC(=O)CCCCCCC)C(C)C)COC(=O)CCCCCCC [Compound 189]	0.114	87.22 nm	93.88%	6.542
CCCCCCCCC(CCCCCC)COC(=O)CCCCCN(CCO)CCN(CCCCC(COC(=O)CCCCCCC)COC(=O)CCCCCCC)C1CCCCCCC1 (stereo not shown) [Compound 144]	0.099	68.28 nm	84.58%	6.182
CCCCCCCCC(CCCCCC)COC(=O)CCCCCN(CCCCN(CCO)CCCCC(COC(=O)CCCCCCC)COC(=O)CCCCCCC)C1CCCCCC1 (stereo not shown) [Compound 193]	0.228	80.39 nm	84.30%	6.666
CCCCCCCC(=O)OCC(CCCCN(CCC)CCCCN(CCO)CCCCC(COC(=O)CCCCCCC)COC(=O)CCCCCCC)COC(=O)CCCCCCC [Compound 184]	0.172	129.75 nm	90.65%	7.098
CCCCCCCCC(CCCCCCCC)COC(=O)CCCCCN(CCO)CCN(CCCCCC(=O)OCC(CCCCCCCC)CCCCCCCC)Cc1ccc(O)cc1 [Compound 56]	0.174	57.44 nm	92.96%	6.702
CCCCCCCCC(CCCCCCCC)COC(=O)CCCCCN(CCO)CCN(CCCCCC(=O)OCC(CCCCCCCC)CCCCCCCC)C1CCOCC1 [Compound 28]	0.045	62.35 nm	92.4%	6.686
CCCCCCCCC(CCCCCC)COC(=O)CCCCCN(CCO)CCN(CCCCCC(=O)OCC(CCCCCC)CCCCCCCC)C1CCCC1 (stereo not shown) [Compound 8]	0.136	65.15 nm	95.8%	6.401
CCCCCCCCCCCOC(=O)CCCCCN(CCN(CCO)CCCCCC(=O)OCC(CCCCCC)CCCCCCCC)C1CCCC1 (stereo not shown) [Compound 5]	0.073	99.12 nm	92.7%	6.56
CCCCCCCCC(CCCCCCCC)COC(=O)CCCCCN(C)C1CCC(N(CCO)CCCCCC(=O)OCC(CCCCCCCC)CCCCCCCC)CC1 (stereo not shown) [Compound 64]	0.177	81.36 nm	97.95%	7.262
CCCCCCCCC(CCCCCC)CNC(=O)CCCCCCN(CCO)CCN(CCCCC(COC(=O)CCCCCCC)COC(=O)CCCCCCC)C1CCCCCCC1 (stereo not shown) [Compound 233]	0.052	76.91 nm	91.15%	6.463
CCCCCCCCC(CCCCCCCC)COC(=O)CCOCCN(CC=C(C)C)CCN(CCO)CCOCCC(=O)OCC(CCCCCCCC)CCCCCCCC [Compound 120]	0.043	75.42 nm	94.33%	6.546
CCCCCCCCC(CCCCCCCC)COC(=O)CCCCCN(C)CCN(CCCCCC(=O)OCC(CCCCCCCC)CCCCCCCC)CCNc1c(NC)c(=O)c1=O [Compound 79]	0.104	69.09 nm	96.26%	6.914
